Experimental data as given in a melting point compilation (Tetko et al.; mined from patent text by program, amines drawn as free bases though some values may be those of a salt).

`O=Cc1ccc(OS(=O)(=O)C(F)(F)F)cc1Cl` and `O=Cc1cc([N+](=O)[O-])ccc1Oc1ccc(F)cc1` cannot be ordered by melting point: 125 to 127 °C for the first, 125 to 126 °C for the second.

First: CNCc1ccc([C@H]2CC[C@@H](N(C)C(=O)c3ccc(Cl)cc3)CC2)cc1
Second: CCC(CC)N(Cc1ccc(C(=O)OC)cc1)S(=O)(=O)c1ccc(F)cc1
The melting point of the first is higher: 110 to 112 °C for the first, 78 to 80 °C for the second.

Compared with `COc1ccccc1CN[C@H]1CCCN[C@H]1Cc1ccccc1` (relative stereo), `COC(=O)Cc1ccccc1SCc1cccc(OC)c1` is lower in melting point: > 241 °C for the first, 87 to 89 °C for the second.

Compared with `ON=C(c1ccccc1F)c1ccc(O)c(Cl)c1Cl`, `Nc1cccnc1Nc1ccccc1C(=O)c1ccc(F)cc1` is lower in melting point: 168 to 175 °C for the first, 122 °C for the second.

First: CCCNNC(=O)c1cnc(N(CC)Cc2cc(Br)ccc2OCc2ccccc2)s1
Second: COC(=O)C(C)(C)CCCOc1cc(C)c(OCc2ccccc2)c(C)c1C
The melting point of the first is higher: 163 °C for the first, 67 to 68 °C for the second.

First: N[C@@H](COc1cccc(Cl)n1)c1ccccc1
Second: CN(CCOc1ccc(CC(Cl)C(=O)O)cc1)c1nc2ccccc2o1 (stereo not drawn)
The melting point of the first is lower: 56 to 57 °C for the first, 142 to 143 °C for the second.

First: Cc1cccc(C(N)c2ccc3nc(NC4CCN(CCO)CC4)n(Cc4nc(C)ccc4O)c3c2)c1 (stereo not drawn)
Second: Cc1cccc(-c2[nH]c(C(C)(C)C)nc2-c2cccc(-c3ccc(C(=O)NC4CCOCC4)cc3)c2)n1
The melting point of the first is lower: 137 °C for the first, 146 to 149 °C for the second.

First: CCN(CC)CC1COCCN1CCNC(=O)N1c2ccccc2C(=O)Nc2cccnc21 (stereo not drawn)
Second: CNC(=O)CCN1c2ccccc2N2CCc3cccc(c32)C1C (stereo not drawn)
The melting point of the first is higher: 150 to 151 °C for the first, 143 to 145 °C for the second.

First: Cc1ccc(-c2cc3ncnc(Nc4ccc5[nH]ccc5c4)c3s2)cc1
Second: Cc1cc(-c2ccc(C(F)(F)F)cc2)nc(-c2ccnc(-c3ccc(S(N)(=O)=O)s3)c2)n1
The melting point of the first is lower: 200 to 220 °C for the first, 264 °C for the second.

First: O=CCN1CCc2ccc(Br)cc2C1=O
Second: O=C(CC1CCCC1=O)c1ccc(Br)cc1 (stereo not drawn)
The melting point of the first is higher: 95 to 96 °C for the first, 59 to 61 °C for the second.

First: Nc1cc2c(c(C(=O)O)c1)NCCC2
Second: Cc1cc2c(c(C)c1N)CCO2
The melting point of the first is higher: 207 to 208 °C for the first, 85 to 86 °C for the second.

First: CCCC(=O)C1=C(O)CC(C2(C)CC(C(C)CC)=NO2)CC1=O (stereo not drawn)
Second: CCOC(=O)c1cnc2sc(CN3CCOCC3)c(C)c2c1O
The melting point of the first is lower: 53 to 55 °C for the first, 182 to 185 °C for the second.

Going from `Cc1ccc(-c2cccnc2N2CCC(C(=O)O)CC2)cc1C(=O)NCC12CC3CC(CC(C3)C1)C2` to `Cc1c(C(=O)Nc2ccc(N3CCC(O)CC3)c(C#N)c2)cnn1-c1ccccc1`, the melting point rises from 60 °C to 182 °C.

First: N#Cc1cc(Br)c(OC(=O)OCCl)c(Br)c1
Second: N#Cc1cc(Cl)ccc1Oc1cc(Br)c(F)cc1O
The melting point of the first is lower: 83 to 85 °C for the first, 208 to 210 °C for the second.

Compared with `Cc1ccc(C)c(NC(=O)NCC2(c3ccccc3)CCCCC2)c1`, `Cc1ccsc1NC(=O)NCC(=O)N(CC(=O)N(C)c1ccccc1)c1ccccc1` is lower in melting point: 202 to 203 °C for the first, 172 °C for the second.

First: Cn1ncc2[nH]c3c(F)cccc3c(=O)c21
Second: COc1cccc2c(=O)c(SC)coc12
The melting point of the first is higher: > 300 °C for the first, 113 to 115 °C for the second.

`CCOC(=O)C(C)=C(C)NC(=O)Nc1ccc(Cl)c(C(=O)OCC)c1` and `CCCOC(=O)C(OC)C(=O)Nc1cc(Cl)cc(Cl)c1` (stereo not drawn) cannot be ordered by melting point: 88 to 91 °C for the first, 89 to 92 °C for the second.

First: Clc1c(-c2ccc(OCc3ccccc3)cc2)[nH]c2ccc(OCc3ccccc3)cc12
Second: O=C1OCc2c(c3cc(-c4ccc(-c5ccccc5)cc4)ccc3n2Cc2ccccc2)C1=O
The melting point of the first is lower: 157 to 160 °C for the first, 254 to 255 °C for the second.

First: O=C(c1ccc(F)cc1)C1CCN(CC2CCc3onc(-c4ccccc4F)c3C2=O)CC1 (stereo not drawn)
Second: O=c1n(C2CCOC2)cc(-c2ccncc2)n1-c1ccc(F)cc1 (stereo not drawn)
The melting point of the first is lower: 99 to 102 °C for the first, 132 to 134 °C for the second.

First: COC(=O)c1ccccc1NS(=O)(=O)c1nc2nc(C)cc(C)n2n1
Second: CCN(C(=O)Cn1c(=O)n(C)c2nc(-c3ccccc3)nc(OC)c21)c1ccccc1
The melting point of the first is lower: 170 °C for the first, 173 to 175 °C for the second.

First: NC(N)=Nc1nc(-c2ccc(CNC(=O)CS(=O)Cc3ccco3)o2)cs1 (stereo not drawn)
Second: NC(N)=Nc1nc(-c2cccc(CNC=O)n2)cs1
The melting point of the first is higher: 208 to 209 °C for the first, 192 to 193 °C for the second.

Compared with `COC(=O)c1cnc(NC(C)C)nc1C`, `CCCCNC(=O)c1cnc2ccccn2c1=O` is higher in melting point: 118 to 119 °C for the first, 127 to 130 °C for the second.

First: O=C(NC(Cc1ccccc1)C(=O)O)OCc1ccc(COCc2ccccc2)cc1 (stereo not drawn)
Second: COc1ccc2[nH]c(C(=O)Nc3cc(NC(=O)OCc4ccccc4)c4ccccc4c3CCOC(C)=O)cc2c1
The melting point of the first is lower: 78.3 to 79.9 °C for the first, 98 to 110 °C for the second.

Compared with `CCOC(=O)CCCCCOc1ccc(C(=O)Nc2ccccc2Oc2ccccc2-c2nnn[nH]2)cc1`, `CCCCCC(=O)c1cccc(OCc2ccc3ccccc3n2)c1` is lower in melting point: 140 to 141 °C for the first, 52 to 55 °C for the second.

First: CCc1ccc(Cc2cn(C3OC(COC(=O)c4ccccc4)C(O)C(OC(=O)c4ccccc4)C3OC(=O)c3ccccc3)c3cccc(Cl)c23)cc1 (stereo not drawn)
Second: CCOC(=O)CC1(N2C(=O)c3ccccc3C2=O)C(=O)N(c2ccccc2)c2ccccc21 (stereo not drawn)
The melting point of the first is higher: 192 to 193 °C for the first, 148 to 149 °C for the second.

Compared with `CCN(CCc1c[nH]c2ccc(F)cc12)C1COc2c(F)ccc(C(=O)NC)c2C1` (stereo not drawn), `CC(=O)c1ccc(Oc2ccc(F)cc2F)c(NS(C)(=O)=O)c1` is higher in melting point: 125 °C for the first, 142 to 143 °C for the second.

First: O=C(CCCN1CCN(c2cc3ccccc3cn2)CC1)c1cccs1
Second: COC(=O)c1ccc(OCCN2CCN(c3cc(Cl)nnc3Cl)CC2)nc1
The melting point of the first is lower: 94 to 100 °C for the first, 145 to 146 °C for the second.

First: CCCCC1(N(C)C)CCC(c2[nH]c3ccccc3c2CC2CCCCC2)CC1 (stereo not drawn)
Second: CNC(=O)c1cc(-c2ccc(OC)cc2)nn(CC2CCCC2)c1=O
The melting point of the first is higher: 155 to 165 °C for the first, 107 to 108 °C for the second.

First: c1coc2cc3ccnc3cc2c1
Second: NC(=O)Cn1c(-c2cccc(Cl)c2)nc2cccnc21
The melting point of the first is lower: 97 °C for the first, 245 to 247 °C for the second.

Compared with `Nc1ncc2cc(-c3c(Cl)cccc3Br)c(N)nc2n1`, `O=S(=O)(Nc1cnc(Oc2cc3ccccc3cn2)c(Cl)c1)c1ccc(Cl)cc1Cl` is lower in melting point: 264 to 280 °C for the first, 203 to 205 °C for the second.

First: Cc1nc2ncnn2c2c1CCN2C1CCCCCC1
Second: COc1cc(C(=O)O)ccc1Cc1cn(C)c2ccc(N(C(N)=O)C3CCCC3)cc12
The melting point of the first is lower: 197 to 198 °C for the first, 203 to 206 °C for the second.

First: O=C(O)c1ccc(C(=O)N2Cc3cccn3Cc3ccccc32)c(Cl)c1
Second: CC(CC(C(=O)N(C)C)(c1ccccc1)c1ccccc1)N1CCC(NC(=O)c2cnc[nH]2)C(O)C1 (stereo not drawn)
The melting point of the first is higher: 198 to 199 °C for the first, 155 °C for the second.

First: COCOc1cc(CBr)c2nc3cccc(OCOC)c3nc2c1
Second: COc1ccc(CCC(=O)c2ccc(O)cc2)c(OC)c1
The melting point of the first is higher: 167 to 168 °C for the first, 126 to 127 °C for the second.

First: Cc1cc(-c2ccc(F)cc2)co1
Second: CCCc1c[nH]cc2c(=O)n(-c3ccc(OC)cc3)nc1-2
The melting point of the first is lower: 95 to 97 °C for the first, 165 °C for the second.

First: O=C(c1cc(C(F)(F)F)cc(C(F)(F)F)c1)N1CCN(CCCC2(c3ccc(F)cc3)OCCO2)C[C@H]1Cc1c[nH]c2ccccc12
Second: O=C(O)CN1CCC[C@H](OCc2cc(C(F)(F)F)cc(C(F)(F)F)c2)[C@@H]1c1ccccc1
The melting point of the first is higher: 145 to 146 °C for the first, 60 to 63 °C for the second.

First: COC(=O)NNC(=O)Cc1ccccc1
Second: CC(=O)OCOC(=O)c1oc(-c2ccccc2)cc(=O)c1Br
The melting point of the first is lower: 94 to 95 °C for the first, 121 °C for the second.

First: Fc1nccc(I)c1CCCCl
Second: CCCCNc1nc2cc(C)nn2c2ccncc12
The melting point of the first is lower: 24 to 25 °C for the first, 116 °C for the second.

Compared with `CCOc1cc(N)nc(Cl)n1`, `CC(Cn1cncn1)c1ccc(Cl)cc1Cl` (stereo not drawn) is lower in melting point: 133 °C for the first, 79.5 °C for the second.

First: CC1(C)O[C@@H]2[C@@H](O1)[C@H](C(=O)O)O[C@H]2n1cnc2c(N)nc(I)nc21
Second: CCSc1nc(N)nc2c1ncn2C1C=CC(CO)C1 (stereo not drawn)
The melting point of the first is higher: 187 to 190 °C for the first, 123 to 125 °C for the second.

First: Cn1c([N+](=O)[O-])cnc1COc1ccc(SC#N)cc1
Second: COc1ccc(NC(=O)c2ccc([N+](=O)[O-])c(OC)c2)cc1
The melting point of the first is lower: 140 °C for the first, 168 to 169 °C for the second.

First: COc1ccc(C(C)N(C)CCCOc2ccc(S(=O)(=O)c3ncsc3-c3ccccc3)cc2)cc1OC (stereo not drawn)
Second: CC(=O)Cn1nc(-c2sc(N)nc2-c2ccccc2)ccc1=O
The melting point of the first is lower: 162 °C for the first, 216 to 219 °C for the second.

First: CN(C(=O)OC(C)(C)C)c1ccc(-c2ncn(-c3ccc(OC(F)(F)F)cc3)n2)cc1
Second: N#Cc1cccc(NC(=O)Nc2ccc(-n3nc(C(F)(F)F)cc3C(F)(F)F)cc2)c1
The melting point of the first is lower: 125 to 128 °C for the first, 204 to 205 °C for the second.

First: NC1c2ccccc2-c2[nH]c(=O)c3nccn3c21 (stereo not drawn)
Second: CCn1c(=N)c(-c2cccs2)cc2cnc(Nc3ccccc3)nc21
The melting point of the first is higher: 240 °C for the first, 204 to 205 °C for the second.

Compared with `Cc1ccc(N=CN(C)C=Nc2ccccn2)c(C)c1`, `CC(C)(C)OC(=O)N1CCC[C@@H](Nc2ncc3c(n2)-c2ccccc2[C@@H](c2ccc(Cl)c(Cl)c2)C3)C1` is lower in melting point: 100 °C for the first, 85 to 87 °C for the second.

First: CCCNC(=O)C(C#N)=C1Nc2ccccc2O1
Second: CCCCOCC(CN1C(=O)NC(=O)C(CC)(c2ccccc2)C1=O)OC(N)=O (stereo not drawn)
The melting point of the first is higher: 215 to 220 °C for the first, 104 °C for the second.

First: CC1CC(=O)c2c(OS(=O)(=O)c3cccs3)ccc(Br)c2C1 (stereo not drawn)
Second: CCOC(=O)C(C)=Cc1cn(Cc2ccc(C(=O)OC(C)(C)C)cc2OC)c2cc(C(=O)NCC3CCCC3)ccc12
The melting point of the first is lower: 110 to 113 °C for the first, 118 to 120 °C for the second.

Compared with `O=C1OCCN1c1ccc(NCCO)c([N+](=O)[O-])c1`, `Cc1cc(N2C(=O)N(CCCCCN3C(=O)N(c4ccc([N+](=O)[O-])c(C)c4)C(=O)C3(C)C)C(C)(C)C2=O)ccc1[N+](=O)[O-]` is lower in melting point: 184 °C for the first, 130 to 131 °C for the second.

Compared with `OCC1OC(c2c(Cl)c(Cl)cc3nc(Cl)cn23)C(O)C1O` (stereo not drawn), `CC(C)(C)OC(=O)CN(CC(=O)OC(C)(C)C)S(=O)(=O)c1ccc(N2CCC(NC[C@H](O)c3ccc(O)c(NS(C)(=O)=O)c3)CC2)cc1` is lower in melting point: 267 to 268 °C for the first, 164 to 166 °C for the second.

Compared with `CS(=O)(=O)N(CCCl)N(C(=O)NCCCCl)S(C)(=O)=O`, `CCN(CC)CC1CN(Cc2cc(OC)c(OC)c(OC)c2)CCN1C(=O)C1=Cc2cc(OC)c(OC)cc2CCC1` (stereo not drawn) is higher in melting point: 85 to 86 °C for the first, 157 to 160 °C for the second.
